Results published in patent US6300311A, “Regulation of vertebrate ovarian maturation and function using growth factors” (Texas Tech University, priority 1998, dated 2001).
Several values for one entry are separate records, joined by “and”; a condition that tells them apart may be missing. Equal values may be shown once. Entries after “also recorded” stand apart in the source; their conditions may differ.

How the values were obtained:
[1] = test system: R55 mRNA; assay: Rabbit ovary explant culture treated with EGF, R55 mRNA by Northern blot; type: cell-based; settings: EGF 50 ng/ml
Description: A method to culture pieces of ovaries from 14 d.pp. rabbits was developed, modeled after techniques used for ovaries from neonatal mice and bovine embryos. Tissue pieces (1-2 mm^3) from 14 d.pp. rabbit ovaries containing only primordial follicles were placed in cell culture inserts with 3.0 mm pores and cultured in 24-well plates with 300 microliters medium (50-50 blend of (a) F-12 Nutrient Mixture (Ham)(1×), liquid contains L-glutamine, and (b) Medium 199 (1×), liquid contains Earle's modified salts, 1.250 mg/L sodium bicarbonate, and L-glutamine.
Cultures were treated with mouse EGF (50 ng/ml) and analyzed for the level of expression of R55 mRNA. Treatment with EGF produced a 3-fold increase in amount of R55 mRNA (normalized to 28 S) as compared to controls incubated in medium alone (FIG. 3).
Ovaries were collected from 2 week old rabbits and the tissue mince into small pieces (-1 mm^3). These ovarian explants were then cultured for 6 days in the presence or absence of EGF (50 ng/ml). Total RNA was isolated and the relative amount of R55mRNA measured by Northern blot analysis. The result of 3 experiments were averaged and graphed. The level of P55 expression in the controls was defined as one. The level of expression of the epidermal growth factor treated samples was approximately 3 fold of that seen in the controls. […] This effect is due to an increase in the number of follicles being activated.

[2] = test system: pig ZP proteins; assay: Pig ovarian explant culture with EGF, ZP proteins by protein dot blot; type: cell-based; settings: EGF 50 ng/ml, 6 days
Procedure: For this first experiment ovaries were collected form pigs at three to five weeks of age at which the pig ovaries are very immature. The ovaries were then minced into small pieces and grown in ovarian explant cultures with or without EGF (similar to what we have done with the rabbit ovaries). After 6 days of culture the tissue was collected and in this case proteins from these samples were isolated and solubilized. The amount of total zona pellucida protein in these samples was determined using an antibody we developed in guinea pigs against total zona pellucida proteins. The amount of porcine zona pellucida proteins in these samples were determined by dot blot analysis and quantified by optical density. The relative amount of zona pellucida protein is graphed for each sample (control and EGF treated 50 ng/ml). This was done for 3 replicates.

[3] = test system: pig ZP proteins in isolated primordial follicles; assay: Isolated pig primordial follicles cultured with EGF, ZP proteins by protein dot blot; type: cell-based; settings: EGF 50 ng/ml, 6 days
Procedure: FIG. 16 graphically presents the results of studying the effect of EGP on ZP expression in isolated primordial follicles. As in the previous experiment, ovaries were collected from immature pigs at 3 to 5 weeks of age. In this case the ovaries were minced and the follicles enzymatically separated from the connective tissues and isolated. The population of small primordial follicles were collected and grown in cell culture well inserts. These were cultured for six days in medium alone as control or in medium supplemented with 50 nanograms per ml of EGF. After 6 days of culture the follicles were collected and proteins isolated and solubilized. The amount of total zona pellucida protein in these samples was determined using an antibody developed in guinea pigs against total zona pellucida proteins. The amount of porcine zona pellucida proteins in these samples were determined by dot blot analysis and quantified by optical density. The relative amount of zona pellucida protein is graphed in FIG. 16 for each sample (control and EGF treated 50 ng/ml). This was done for 3 replicates. […] This is consistent with the hypothesis that EGF can stimulate activation of dormant primordial follicles as indicated by the expression of zona pellucida genes.

[4] = test system: granulosa cells from primary pig follicles; assay: DNA synthesis in granulosa cells from primary pig follicles; type: cell-based; settings: EGF 50 ng/ml
[5] = test system: FSH receptors; assay: Expression of FSH receptors in granulosa cells from antral pig follicles; type: cell-based; settings: EGF 50 ng/ml
[6] = test system: mini-pigs; settings: minipig, in vivo; cited from earlier work
[7] = test system: neonatal mouse ovaries; settings: neonatal mouse ovaries cultured in vitro; cited from earlier work
[8] = test system: mature rats; settings: intravenously infused for a four-week period; cited from earlier work
[9] = test system: young female pigs; assay: In vivo rec-pEGF by subcutaneous osmotic pumps, Group 2 pigs, body and organ weights at necropsy
[10] = test system: young female pigs; assay: In vivo rec-pEGF by subcutaneous osmotic pumps, Group 1 pigs, histological evaluation of ovarian follicles; set-up: species or system pig
Procedure: Finally, FIG. 23 is a graph which confirms that in vivo administration of rec-pEGF to the Group 1 pigs, above, starting at 30 d.pp. and administered for fourteen consecutive days at a 540 μg/day dose by placement of subcutaneous osmotic pumps in each pig. Ovaries from a sub-set of Group 1 pigs were examined at 70 d.pp. when the first cohort of growing follicles is normally expected to be present. […] Data was obtained by counting the number of hematoxylin/eosin stained follicles in a counting frame (960×1400 μm), and only sections through the center of a follicle with the germinal vesicle present were used for the evaluation. Growing follicles were identified based upon the presence of at least one cuboidal layer of granulosa cells surrounding the oocyte.

[11] = test system: Swiss 3T3 fibroblast cells; assay: 3T3 fibroblast proliferation assay ([H3]-thymidine incorporation); type: cell-based; settings: quiescent Swiss 3T3 cells
Procedure: In FIG. 21, the bioactivity of EGF was tested in a 3T3 fibroblast proliferation assay. EGF was added to quiescent Swiss 3T3 fibroblast cells and stimulation of fibroblast proliferation was measured by [H^3 ]-thymidine incorporation as an indicator of DNA synthesis.

[12] = test system: young female pigs; settings: pig, in vivo
[13] = test system: antiserum to recombinant porcine EGF; settings: radioimmunoassay with antiserum to recombinant porcine EGF; cited from earlier work
[14] = average of ten largest follicles, 540 μg/day for fourteen days

EGF: 53-residue polypeptide that is mitogenic for a variety of cell types both in vivo and in vitro
ratio of R55 to 28S optical densities from Northern blots ([1]; 6 days, ovarian explants of 2 week old rabbits, control = 1, single experiments): 2.87 and 3.09 and 3.28 | ratio of R55 to 28S optical densities from Northern blots, average ([1]; 6 days, average of 3 experiments, control = 1): 3.08 | expression of R55 in primordial rabbit ovarian follicles (in words) ([1]; Northern blot): increased expression of R55; also recorded: significant increases in expression of R55 | Optical density of ZP proteins from ovarian explant cultures ([2]; ovaries of pigs 3 to 5 weeks of age, single replicates): 6355 and 6086 and 7193 | increase in the amount of zona pellucida protein in EGF treated ovarian explants ([2]; versus control): approximately a two fold increase | Optical density of ZP proteins from ovarian explant cultures, Avg. ZP ([2]; average of 3 replicates): 6545 | Optical density of ZP proteins from cultured primordial follicles ([3]; follicles of pigs 3 to 5 weeks of age, single replicates): 1815 and 371 and 1697 | expression of zona pellucida proteins in primordial follicles (in words) ([3]; versus medium alone): significant increase | Optical density of ZP proteins from cultured primordial follicles, Avg. ZP ([3]; average of 3 replicates): 1294 | DNA synthesis in granulosa cells from primary pig follicles [4]: stimulates | expression of FSH receptors in granulosa cells from antral pig follicles [5]: stimulates | organ growth in mini-pigs [6]: stimulate growth of heart, liver, and urinary tract | number of eggs recovered for in vitro maturation and fertilization [7]: increased the number of eggs recovered | number of corpora lutea (CL) [8]: increase in the number of corpora lutea | ovarian weights [8]: ovarian weights were increased | Avg. Daily Gain ([9]; Group 2, N = 3): 0.32 ± 0.06 kg/day | Day 14 Weight ([9]; Group 2, N = 3): 4.6 ± 0.24 kg | Day 70 Weight ([9]; Group 2, N = 3): 22.7 ± 3.40 kg

rec-pEGF: recombinant porcine EGF expressed in a bacterial system, with 6X histidine tag and 19 vector amino acids
greater population of growing follicles than in control or non-treated groups ([10]; 540 μg/day for fourteen days from 30 d.pp., necropsy fourteen days post-treatment): 70% | size of ovarian follicles (in words) ([10]; 540 μg/day for fourteen days from 30 d.pp., versus control or non-treated groups): larger ovarian follicles | number of ovarian follicles at 70 d.pp. (in words) ([10]; 540 μg/day for fourteen days from 30 d.pp., versus control group and group administered nothing): significantly increased | follicle diameter greater than that of the control group [10, 14]: over 100% | follicle diameter greater than that of the group given nothing [10, 14]: over 70% | Stimulation of fibroblast proliferation [11]: comparable to that of purified mouse EGF | effect on organ weights, body weights and general pathology [12]: lack of effect | increase in size of the ovaries ([9]; 600 μg/day for fourteen days from 21 d.pp., tissues collected at 10 weeks, versus control and untreated group): ~100%

mouse EGF: EGF originally purified from the male mouse submaxillary gland; used in the rabbit ovary cultures (NSYPGCPSSYDGYCLNGGVCMHIESLDSYTCNCVIGYSGDRCQTRDLRWWELR; Epidermal growth factor; UniProt P01132 977-1029, looked up)
increase in amount of R55 mRNA as compared to controls ([1]; normalized to 28S, controls in medium alone): 3 fold | cross-reactivity [13]: < 1%
